Assay results: article doi:10.1101/2024.08.19.608619, “Discovery of potent SARS-CoV-2 nsp3 macrodomain inhibitors uncovers lack of translation to cellular antiviral response” (bioRxiv, 2024)
“And” between values parts separate entries of the source, which are not always exact repeats. Identical values can stand only once. Like-named read-outs stand apart in the source and are kept apart here.

How the values were obtained:
[1] = system: SARS-CoV-2, isolate USA-WA1/2020; experiment: microbe, parasite or virus in culture; format: cell-based; conditions: HeLa-ACE2 SARS-CoV-2 antiviral effect without P-gp inhibitor; for EC50: read-out: ec50; for EC90: read-out: ec90
[2] = Hepatic microsomal stability, HLM; format: in vitro ADME, human; conditions: In vitro human liver microsomal stability; for perc_remaining_no_cofactor: no cofactor
[3] = Hepatic microsomal stability, MLM; format: in vitro ADME; conditions: In vitro mouse liver microsomal stability; for perc_remaining_no_cofactor: no cofactor
[4] = In vitro human hepatocyte stability; format: in vitro ADME
Description: Supplement media-1.zip/Hepatocyte_Stability.csv, table | column: clint; t_half

Protein binding = format: in vitro ADME
Description: Supplement media-1.zip/Protein_Binding.csv, table | column: fu; perc_bound; perc_free; perc_recovered

5-HT2A (h) = target: T1, 5-HT2A (h) (Homo sapiens, UniProt P28223); experiment: In vitro CEREP profiling, 5-HT2A (h) (agonist radioligand); format: binding; conditions: test compound concentration 10 uM
T1 construct: purchased Eurofins Cerep (SafetyScreen44), recognised from the panel format
Description: (§1) Supplement media-1.zip/Safety_Panel_Profile.csv, table | column: perc_inhibition

5-HT2B (h) = target: T2, 5-HT2B (h) (Homo sapiens, UniProt P41595); experiment: In vitro CEREP profiling, 5-HT2B (h) (agonist radioligand); format: binding; conditions: test compound concentration 10 uM
T2 construct: purchased Eurofins Cerep (SafetyScreen44), recognised from the panel format
Description: as §1

COX2(h) = target: T3, COX2(h) (Homo sapiens, UniProt P35354); experiment: In vitro CEREP profiling, COX2(h); format: biochemical; conditions: test compound concentration 10 uM; Enzyme and Cell-based assays
T3 construct: purchased Eurofins Cerep (SafetyScreen44), recognised from the panel format
T3 sequence (P35354 18-604): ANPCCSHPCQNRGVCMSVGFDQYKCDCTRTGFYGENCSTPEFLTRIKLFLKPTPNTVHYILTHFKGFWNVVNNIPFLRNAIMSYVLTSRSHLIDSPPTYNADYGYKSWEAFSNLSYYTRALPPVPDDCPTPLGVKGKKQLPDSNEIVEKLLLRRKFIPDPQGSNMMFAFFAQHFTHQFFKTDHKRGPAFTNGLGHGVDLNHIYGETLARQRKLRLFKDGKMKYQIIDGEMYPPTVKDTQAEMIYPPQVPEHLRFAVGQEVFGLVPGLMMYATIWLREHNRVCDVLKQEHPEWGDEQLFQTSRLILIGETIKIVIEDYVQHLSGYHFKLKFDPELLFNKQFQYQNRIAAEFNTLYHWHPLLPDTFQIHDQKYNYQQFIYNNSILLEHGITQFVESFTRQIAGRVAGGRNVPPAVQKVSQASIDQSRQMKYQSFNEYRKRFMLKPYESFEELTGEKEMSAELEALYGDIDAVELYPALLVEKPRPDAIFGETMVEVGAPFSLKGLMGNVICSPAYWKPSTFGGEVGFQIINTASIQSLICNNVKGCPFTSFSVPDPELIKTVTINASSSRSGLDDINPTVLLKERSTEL
Description: as §1

beta1 (h) = target: T4, beta1 (h) (Homo sapiens, UniProt P08588); experiment: In vitro CEREP profiling, beta1 (h) (agonist radioligand); format: binding; conditions: test compound 10 uM
T4 construct: purchased Eurofins Cerep (SafetyScreen44), recognised from the panel format
Description: as §1

[5] = target: T5, Potassium Channel hERG (human) (Homo sapiens, UniProt Q12809); experiment: In vitro CEREP profiling, Potassium Channel hERG (human)- [3H] Dofetilide; format: binding; conditions: test compound concentration 10 uM
T5 construct: purchased Eurofins Cerep (SafetyScreen44), recognised from the panel format
Description: as §1

D1 (h) = target: T6, D1 (h) (Homo sapiens, UniProt P21728); experiment: In vitro CEREP profiling, D1 (h) (antagonist radioligand); format: binding; conditions: test compound 10 uM
T6 construct: purchased Eurofins Cerep (SafetyScreen44), recognised from the panel format
Description: as §1

D2S (h) = target: T7, D2S (h) (Homo sapiens, UniProt P14416); experiment: In vitro CEREP profiling, D2S (h) (agonist radioligand); format: binding; conditions: test compound 10 uM
T7 construct: purchased Eurofins Cerep (SafetyScreen44), recognised from the panel format
Description: as §1

[6] = target: T8, norepinephrine transporter (h) (Homo sapiens, UniProt P23975); experiment: In vitro CEREP profiling, norepinephrine transporter (h) (antagonist radioligand); format: binding; conditions: test compound concentration 10 uM
T8 construct: purchased Eurofins Cerep (SafetyScreen44), recognised from the panel format
Description: as §1

CDK6/cyclinD3(h) = CDK6/cyclinD3(h) (Homo sapiens, UniProt Q00534); experiment: biochemical; set-up: In vitro kinase panel profiling, per cent remaining kinase activity at 10 uM; conditions: atp_concentration=200, read-out: % of control remaining
Description: (§2) We derisk potential for off-target activity by profiling the compound in a CEREP panel, a standard secondary pharmacology assessment, as well as a kinase panel to derisk a potential hinge-binding motif in our leads, and a PARP panel to derisk activity against human […]. Reassuringly, the compounds are selective, with the only off-targets being moderate human CHRM2 and KOR receptors activity associated with ASAP-0011198.

PKCα(h) = target: T9, PKCα(h) (Homo sapiens, UniProt P17252); experiment: biochemical; set-up: In vitro kinase panel profiling, per cent remaining kinase activity at 10 uM; conditions: atp_concentration=45, read-out: % of control remaining
T9 construct: gene PRKCA
Description: as §2

[7] = maximum measured response of dose series
[8] = minimum measured response of dose series
[9] = In vitro dog plasma protein binding
[10] = In vitro fetal calf serum protein binding
[11] = In vitro human plasma protein binding
[12] = In vitro mouse plasma protein binding
[13] = In vitro rat plasma protein binding

T4 sequence (P08588 whole entry): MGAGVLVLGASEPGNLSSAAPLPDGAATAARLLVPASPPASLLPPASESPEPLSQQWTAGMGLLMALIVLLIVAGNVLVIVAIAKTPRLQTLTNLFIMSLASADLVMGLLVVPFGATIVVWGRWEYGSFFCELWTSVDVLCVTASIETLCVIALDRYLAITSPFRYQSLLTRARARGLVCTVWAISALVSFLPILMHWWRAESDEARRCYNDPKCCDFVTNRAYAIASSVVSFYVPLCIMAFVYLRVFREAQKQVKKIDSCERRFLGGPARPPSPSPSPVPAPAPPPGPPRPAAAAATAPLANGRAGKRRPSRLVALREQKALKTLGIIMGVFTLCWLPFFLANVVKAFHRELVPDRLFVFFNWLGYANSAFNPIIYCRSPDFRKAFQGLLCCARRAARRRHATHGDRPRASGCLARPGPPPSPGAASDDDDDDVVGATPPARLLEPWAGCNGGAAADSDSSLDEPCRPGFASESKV
T1 sequence (P28223 whole entry): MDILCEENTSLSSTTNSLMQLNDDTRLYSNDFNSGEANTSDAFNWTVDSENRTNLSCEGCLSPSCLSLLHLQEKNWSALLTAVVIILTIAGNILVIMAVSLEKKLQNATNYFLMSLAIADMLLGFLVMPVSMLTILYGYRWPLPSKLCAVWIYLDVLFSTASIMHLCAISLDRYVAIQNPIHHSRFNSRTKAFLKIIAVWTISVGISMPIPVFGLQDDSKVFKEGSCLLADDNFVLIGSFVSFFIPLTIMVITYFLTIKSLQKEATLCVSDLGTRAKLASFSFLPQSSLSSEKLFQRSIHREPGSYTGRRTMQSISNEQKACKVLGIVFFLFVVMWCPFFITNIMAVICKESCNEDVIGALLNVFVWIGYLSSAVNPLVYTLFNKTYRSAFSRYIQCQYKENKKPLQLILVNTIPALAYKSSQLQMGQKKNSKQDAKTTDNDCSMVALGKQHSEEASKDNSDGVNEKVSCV
T2 sequence (P41595 whole entry): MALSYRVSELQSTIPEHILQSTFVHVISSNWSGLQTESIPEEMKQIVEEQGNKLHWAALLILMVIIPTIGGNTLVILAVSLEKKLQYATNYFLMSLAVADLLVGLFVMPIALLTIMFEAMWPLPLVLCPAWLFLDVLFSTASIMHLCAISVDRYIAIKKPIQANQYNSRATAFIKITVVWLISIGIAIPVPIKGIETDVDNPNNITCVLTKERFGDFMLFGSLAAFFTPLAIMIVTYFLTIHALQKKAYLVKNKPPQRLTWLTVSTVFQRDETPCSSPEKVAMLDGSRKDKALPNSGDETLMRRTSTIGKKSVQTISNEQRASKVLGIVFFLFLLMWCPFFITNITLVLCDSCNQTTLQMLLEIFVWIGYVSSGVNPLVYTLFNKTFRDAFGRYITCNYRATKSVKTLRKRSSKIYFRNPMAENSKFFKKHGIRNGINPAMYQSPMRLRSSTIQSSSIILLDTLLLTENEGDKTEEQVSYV
Sequence of CDK6/cyclinD3(h) (Q00534 whole entry): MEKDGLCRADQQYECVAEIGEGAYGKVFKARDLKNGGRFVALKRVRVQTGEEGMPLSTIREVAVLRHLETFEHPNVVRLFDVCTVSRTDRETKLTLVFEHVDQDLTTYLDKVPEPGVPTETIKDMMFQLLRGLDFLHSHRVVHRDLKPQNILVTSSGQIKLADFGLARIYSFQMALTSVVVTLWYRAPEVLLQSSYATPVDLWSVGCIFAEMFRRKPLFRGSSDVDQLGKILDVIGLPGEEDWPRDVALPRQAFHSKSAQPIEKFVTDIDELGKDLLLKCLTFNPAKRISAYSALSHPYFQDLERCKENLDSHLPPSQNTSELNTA
Sequence of CDK6/cyclinD3(h) (P30281 whole entry partner): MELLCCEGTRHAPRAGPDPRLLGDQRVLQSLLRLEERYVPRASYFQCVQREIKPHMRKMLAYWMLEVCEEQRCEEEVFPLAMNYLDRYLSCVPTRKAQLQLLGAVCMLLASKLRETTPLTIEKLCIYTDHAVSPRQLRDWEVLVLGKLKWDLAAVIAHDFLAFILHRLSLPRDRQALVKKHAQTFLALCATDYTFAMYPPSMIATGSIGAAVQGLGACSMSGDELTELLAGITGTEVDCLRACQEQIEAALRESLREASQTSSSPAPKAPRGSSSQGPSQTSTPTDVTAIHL
T5 sequence (Q12809 whole entry): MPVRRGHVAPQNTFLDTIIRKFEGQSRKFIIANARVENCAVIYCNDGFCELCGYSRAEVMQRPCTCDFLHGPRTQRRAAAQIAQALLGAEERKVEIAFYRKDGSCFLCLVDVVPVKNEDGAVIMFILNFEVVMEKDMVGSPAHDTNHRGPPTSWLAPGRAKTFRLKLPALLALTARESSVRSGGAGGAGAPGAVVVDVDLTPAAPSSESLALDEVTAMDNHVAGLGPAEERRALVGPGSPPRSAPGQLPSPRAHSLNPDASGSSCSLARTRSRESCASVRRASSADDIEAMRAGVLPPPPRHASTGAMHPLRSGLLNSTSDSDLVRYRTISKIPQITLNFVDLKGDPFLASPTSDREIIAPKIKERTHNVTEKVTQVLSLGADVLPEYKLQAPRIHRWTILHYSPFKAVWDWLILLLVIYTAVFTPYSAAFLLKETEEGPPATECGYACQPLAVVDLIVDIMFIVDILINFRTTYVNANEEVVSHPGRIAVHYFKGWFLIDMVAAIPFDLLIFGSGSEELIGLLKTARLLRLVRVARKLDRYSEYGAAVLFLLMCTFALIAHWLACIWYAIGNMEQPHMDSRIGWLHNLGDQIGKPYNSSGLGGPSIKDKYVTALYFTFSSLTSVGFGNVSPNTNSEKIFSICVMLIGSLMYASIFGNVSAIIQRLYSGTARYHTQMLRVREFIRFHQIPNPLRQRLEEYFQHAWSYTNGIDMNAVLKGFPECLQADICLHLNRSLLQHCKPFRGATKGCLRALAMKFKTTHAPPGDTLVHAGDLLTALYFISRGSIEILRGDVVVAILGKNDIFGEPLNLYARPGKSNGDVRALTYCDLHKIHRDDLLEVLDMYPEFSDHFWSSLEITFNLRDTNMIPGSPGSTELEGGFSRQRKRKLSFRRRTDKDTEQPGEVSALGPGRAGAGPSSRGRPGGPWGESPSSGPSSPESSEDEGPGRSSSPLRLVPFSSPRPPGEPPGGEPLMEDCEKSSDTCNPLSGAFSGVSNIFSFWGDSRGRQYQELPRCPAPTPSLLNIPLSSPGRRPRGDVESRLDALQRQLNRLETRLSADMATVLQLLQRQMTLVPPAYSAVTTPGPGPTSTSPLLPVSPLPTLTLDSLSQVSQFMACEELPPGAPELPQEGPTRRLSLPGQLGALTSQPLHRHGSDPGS
T6 sequence (P21728 whole entry): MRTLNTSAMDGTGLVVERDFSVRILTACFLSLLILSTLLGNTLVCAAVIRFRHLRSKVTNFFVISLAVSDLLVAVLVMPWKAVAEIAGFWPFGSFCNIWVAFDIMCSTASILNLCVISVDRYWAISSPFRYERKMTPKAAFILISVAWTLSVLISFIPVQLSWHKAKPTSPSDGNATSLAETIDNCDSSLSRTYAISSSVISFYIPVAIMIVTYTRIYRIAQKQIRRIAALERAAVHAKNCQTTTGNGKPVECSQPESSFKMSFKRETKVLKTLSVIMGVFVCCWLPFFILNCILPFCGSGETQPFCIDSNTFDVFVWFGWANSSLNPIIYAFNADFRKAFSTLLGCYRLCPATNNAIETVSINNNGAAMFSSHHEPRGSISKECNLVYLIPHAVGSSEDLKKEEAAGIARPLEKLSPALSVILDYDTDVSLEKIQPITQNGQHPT
T7 sequence (P14416 1-414 isoform P14416-2): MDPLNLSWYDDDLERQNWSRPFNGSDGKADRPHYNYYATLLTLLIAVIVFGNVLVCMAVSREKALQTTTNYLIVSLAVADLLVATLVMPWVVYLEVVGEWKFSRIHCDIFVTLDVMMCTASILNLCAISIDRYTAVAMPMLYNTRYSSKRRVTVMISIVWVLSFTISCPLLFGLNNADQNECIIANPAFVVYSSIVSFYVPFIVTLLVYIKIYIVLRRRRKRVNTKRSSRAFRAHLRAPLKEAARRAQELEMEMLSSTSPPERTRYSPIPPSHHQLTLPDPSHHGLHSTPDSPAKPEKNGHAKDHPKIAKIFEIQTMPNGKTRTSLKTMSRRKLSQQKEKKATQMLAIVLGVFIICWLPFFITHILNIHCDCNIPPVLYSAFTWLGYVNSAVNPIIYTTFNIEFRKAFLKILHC

CNCc1cc(-c2cc3c(N[C@@H](c4ccc5c(c4)S(=O)(=O)CCC5)C(C)C)ncnc3[nH]2)co1 [ASAP-0011176]
perc_max_measured ([1]; maximum measured response): 134.366%
perc_max_measured [1, 7]: 113.346%
perc_min_measured ([1]; minimum measured response): 28.123%
perc_min_measured [1, 8]: 56.361%
EC50 [1]: 11.6 µM and > 20 µM
EC90 [1]: > 20 µM
clint [2]: 133.0 µL/min/mg
perc_remaining [2]: 10.0%
t_half [2]: 12.6 min
perc_remaining_no_cofactor [2]: 95.0%
clint [3]: 54.0 µL/min/mg
perc_remaining [3]: 35.0%
t_half [3]: 30.9 min
perc_remaining_no_cofactor [3]: 101.0%
clint [4]: 14.2 uL/min/1E6 cells
t_half [4]: 48.9 min
fu (Protein binding; [9]): 0.088
perc_bound (Protein binding; [9]): 91.2%
perc_free (Protein binding; [9]): 8.77%
perc_recovered (Protein binding; [9]): 70.87%
fu (Protein binding; [10]): 0.08
perc_bound (Protein binding; [10]): 92.0%
perc_free (Protein binding; [10]): 8.01%
perc_recovered (Protein binding; [10]): 78.6%
fu (Protein binding; [11]): 0.08
perc_bound (Protein binding; [11]): 92.0%
perc_free (Protein binding; [11]): 8.01%
perc_recovered (Protein binding; [11]): 78.61%
fu (Protein binding; [12]): 0.031
perc_bound (Protein binding; [12]): 96.9%
perc_free (Protein binding; [12]): 3.14%
perc_recovered (Protein binding; [12]): 94.01%
fu (Protein binding; [13]): 0.072
perc_bound (Protein binding; [13]): 92.8%
perc_free (Protein binding; [13]): 7.24%
perc_recovered (Protein binding; [13]): 95.34%
perc_inhibition (% inhibition of the binding of a ligand specific for each target) (5-HT2A (h)): 29%
perc_inhibition (% inhibition of the binding of a ligand specific for each target) (5-HT2B (h)): -11%
perc_inhibition: % inhibition of control enzyme activity, COX2(h) (COX2(h)): 24%
perc_inhibition (% inhibition of the binding of a ligand specific for each target) (beta1 (h)): -4%
perc_inhibition (% inhibition of the binding of a ligand specific for each target) [5]: 26%
perc_inhibition (% inhibition of the binding of a ligand specific for each target) (D1 (h)): 14%
perc_inhibition (% inhibition of the binding of a ligand specific for each target) (D2S (h)): -9%
perc_inhibition (% inhibition of the binding of a ligand specific for each target) [6]: 39%
remaining activity at 10 µM (CDK6/cyclinD3(h); batch_name=ASAP-0011176-002): 92%
remaining activity at 10 µM (PKCα(h); batch_name=ASAP-0011176-002): 99%

C[C@H](C(=O)O)[C@@H](NC(=O)c1ncnc2[nH]ccc12)c1ccc(Br)cc1 [ASAP-0014722]
perc_max_measured [1, 7]: 104.611%
perc_min_measured ([1]; minimum measured response): 91.919%
perc_min_measured [1, 8]: 71.809%
EC50 [1]: > 20 µM
EC90 [1]: > 20 µM
clint [2]: 3.0 µL/min/mg
perc_remaining [2]: 92.211%
t_half [2]: 573.861 min
perc_remaining_no_cofactor [2]: 101.611%
clint [3]: 4.0 µL/min/mg
perc_remaining [3]: 111.226%
t_half [3]: 379.672 min
perc_remaining_no_cofactor [3]: 100.245%
clint [4]: < 3.0 uL/min/1E6 cells
t_half [4]: > 231.0 min
fu (Protein binding; [9]): 0.039
perc_bound (Protein binding; [9]): 96.1%
perc_free (Protein binding; [9]): 3.94%
perc_recovered (Protein binding; [9]): 103.6%
fu (Protein binding; [10]): 0.043
perc_bound (Protein binding; [10]): 95.7%
perc_free (Protein binding; [10]): 4.3%
perc_recovered (Protein binding; [10]): 106.3%
fu (Protein binding; [11]): 0.026
perc_bound (Protein binding; [11]): 97.4%
perc_free (Protein binding; [11]): 2.6%
perc_recovered (Protein binding; [11]): 99.4%
fu (Protein binding; [12]): 0.111
perc_bound (Protein binding; [12]): 88.9%
perc_free (Protein binding; [12]): 11.1%
perc_recovered (Protein binding; [12]): 94.29%
fu (Protein binding; [13]): 0.044
perc_bound (Protein binding; [13]): 95.6%
perc_free (Protein binding; [13]): 4.41%
perc_recovered (Protein binding; [13]): 93.34%
perc_inhibition (% inhibition of the binding of a ligand specific for each target) (5-HT2A (h)): 1%
perc_inhibition (% inhibition of the binding of a ligand specific for each target) (5-HT2B (h)): -4%
perc_inhibition: % inhibition of control enzyme activity, COX2(h) (COX2(h)): 7%
perc_inhibition (% inhibition of the binding of a ligand specific for each target) (beta1 (h)): -5%
perc_inhibition (% inhibition of the binding of a ligand specific for each target) [5]: 14%
perc_inhibition (% inhibition of the binding of a ligand specific for each target) (D1 (h)): -8%
perc_inhibition (% inhibition of the binding of a ligand specific for each target) (D2S (h)): -1%
perc_inhibition (% inhibition of the binding of a ligand specific for each target) [6]: -6%
remaining activity at 10 µM (CDK6/cyclinD3(h); batch_name=ASAP-0014722-002): 97%
remaining activity at 10 µM (PKCα(h); batch_name=ASAP-0014722-002): 108%

COc1ccc([C@H](Cc2nnn[nH]2)NC(=O)c2ncnc3[nH]ccc23)cc1 [ASAP-0015381]
perc_max_measured ([1]; maximum measured response): 102.013%
perc_max_measured [1, 7]: 116.588%
perc_min_measured ([1]; minimum measured response): 88.847%
perc_min_measured [1, 8]: 75.952%
EC50 [1]: > 20 µM
EC90 [1]: > 20 µM
clint [2]: 2.0 µL/min/mg
perc_remaining [2]: 105.597%
t_half [2]: 1085.642 min
perc_remaining_no_cofactor [2]: 84.68%
clint [3]: 7.0 µL/min/mg
perc_remaining [3]: 115.387%
t_half [3]: 205.885 min
perc_remaining_no_cofactor [3]: 100.411%
clint [4]: < 3.0 uL/min/1E6 cells
t_half [4]: > 231.0 min
fu (Protein binding; [9]): 0.106
perc_bound (Protein binding; [9]): 89.4%
perc_free (Protein binding; [9]): 10.6%
perc_recovered (Protein binding; [9]): 90.64%
fu (Protein binding; [10]): 0.061
perc_bound (Protein binding; [10]): 93.9%
perc_free (Protein binding; [10]): 6.07%
perc_recovered (Protein binding; [10]): 101.6%
fu (Protein binding; [11]): 0.01
perc_bound (Protein binding; [11]): 99.0%
perc_free (Protein binding; [11]): 1.01%
perc_recovered (Protein binding; [11]): 102.0%
fu (Protein binding; [12]): 0.306
perc_bound (Protein binding; [12]): 69.4%
perc_free (Protein binding; [12]): 30.6%
perc_recovered (Protein binding; [12]): 84.29%
fu (Protein binding; [13]): 0.047
perc_bound (Protein binding; [13]): 95.3%
perc_free (Protein binding; [13]): 4.69%
perc_recovered (Protein binding; [13]): 100.2%
perc_inhibition (% inhibition of the binding of a ligand specific for each target) (5-HT2A (h)): -4%
perc_inhibition (% inhibition of the binding of a ligand specific for each target) (5-HT2B (h)): -33%
perc_inhibition: % inhibition of control enzyme activity, COX2(h) (COX2(h)): -1%
perc_inhibition (% inhibition of the binding of a ligand specific for each target) (beta1 (h)): -3%
perc_inhibition (% inhibition of the binding of a ligand specific for each target) [5]: 5%
perc_inhibition (% inhibition of the binding of a ligand specific for each target) (D1 (h)): -18%
perc_inhibition (% inhibition of the binding of a ligand specific for each target) (D2S (h)): -4%
perc_inhibition (% inhibition of the binding of a ligand specific for each target) [6]: -5%
remaining activity at 10 µM (CDK6/cyclinD3(h); batch_name=ASAP-0015381-001): 102%
remaining activity at 10 µM (PKCα(h); batch_name=ASAP-0015381-001): 93%
